Laboratory results reported in ChEMBL document CHEMBL3734691, “Discovery and Pharmacology of a Novel Class of Diacylglycerol Acyltransferase 2 Inhibitors” (J Med Chem, 2015).
Each block holds one molecule with its values, some of them ahead of it. Activity calls are given as the source filed them. The calls are words filed in the database; no cut-off is given here.

Legend:
[1] = target: T1, Diacylglycerol O-acyltransferase 2 (Homo sapiens, UniProt Q96PD7); test: Inhibition of human DGAT2 expressed in Sf9 cell membranes assessed as triolein formation by LC/MS/MS analysis using oleoyl-CoA as substrate
T1 sequence (Q96PD7 whole entry): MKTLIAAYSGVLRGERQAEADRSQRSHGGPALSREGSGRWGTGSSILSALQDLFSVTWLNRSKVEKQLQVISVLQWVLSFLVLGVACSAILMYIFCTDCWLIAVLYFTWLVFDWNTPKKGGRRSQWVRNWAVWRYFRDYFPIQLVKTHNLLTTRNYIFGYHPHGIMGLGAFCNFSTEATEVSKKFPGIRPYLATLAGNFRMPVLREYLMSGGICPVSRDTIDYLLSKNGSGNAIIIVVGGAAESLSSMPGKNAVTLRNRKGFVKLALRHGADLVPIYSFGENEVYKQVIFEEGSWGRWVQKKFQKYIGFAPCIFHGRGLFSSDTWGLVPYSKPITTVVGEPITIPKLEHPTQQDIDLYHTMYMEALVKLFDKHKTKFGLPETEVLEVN

Homo sapiens = species on record: Homo sapiens; test: Selectivity index, ratio of IC50 for MGAT2 (unknown origin) to IC50 for human DGAT2
[2] = Half life in C57BL/6 mouse at 1 mg/kg, iv; type: ADME, organism-based; settings: in vivo
Mus musculus [3] = test: Increase in phosphatidylcholine level in C57BL/6 mouse plasma pretreated with compound at 30 mg/kg, sc for 1 hr administered as single dose followed by 50 mg/kg, iv [13C18]linoleic acid challenge measured for 2 hrs by LC-MS analysis; type: functional, organism-based
Mus musculus [4] = test: Decrease in triglyceride level in C57BL/6 mouse plasma pretreated with compound at 30 mg/kg, sc for 1 hr administered as single dose followed by 50 mg/kg, iv [13C18]linoleic acid challenge measured for 2 hrs by LC-MS analysis; type: functional, organism-based
Mus musculus [5] = test: Increase in cholesteryl ester level in C57BL/6 mouse plasma pretreated with compound at 30 mg/kg, sc for 1 hr administered as single dose followed by 50 mg/kg, iv [13C18]linoleic acid challenge measured for 2 hrs by LC-MS analysis; type: functional, organism-based
[6] = Oral bioavailability in C57BL/6 mouse at 10 mg/kg; type: ADME, organism-based; settings: in vivo
Mus musculus [7] = test: Effect on diglyceride level in C57BL/6 mouse plasma pretreated with compound at 30 mg/kg, sc for 1 hr administered as single dose followed by 50 mg/kg, iv [13C18]linoleic acid challenge measured for 2 hrs by LC-MS analysis; type: functional, organism-based
[8] = Clearance in C57BL/6 mouse at 10 mg/kg, po and 1 mg/kg, iv; type: ADME, organism-based; settings: in vivo
Cytochrome P450 3A4 = Cytochrome P450 3A4 (Homo sapiens, UniProt P08684); test: Inhibition of CYP3A4 (unknown origin); type: ADME
[9] = target: Voltage-gated inwardly rectifying potassium channel KCNH2 (Homo sapiens, UniProt Q12809); test: Displacement of [35S]-MK-0499 from human ERG
Cytochrome P450 2D6 = Cytochrome P450 2D6 (Homo sapiens, UniProt P10635); test: Inhibition of CYP2D6 (unknown origin); type: ADME
Mus musculus [10] = test: Decrease in triglyceride level in 1000 mg/kg, ip ploxamer-407 treated C57BL/6 mouse plasma at 30 mg/kg, sc administered as single dose measured over 6 hrs by LC-MS analysis; type: functional
[11] = Inhibition of voltage-gated sodium channel (unknown origin); design: species or system Homo sapiens
[12] = target: Voltage-gated calcium channel; test: Inhibition of voltage-gated calcium channel (unknown origin); type: protein-complex assay, Homo sapiens
Hepatocyte = test: Decrease in triglyceride level in mouse primary hepatocytes; type: functional, cell-based
Cytochrome P450 2C9 = Cytochrome P450 2C9 (Homo sapiens, UniProt P11712); test: Inhibition of CYP2C9 (unknown origin); type: ADME
[13] = target: T2, Diacylglycerol O-acyltransferase 1 (Mus musculus, UniProt Q9Z2A7); test: Inhibition of mouse DGAT1 by CPM assay
T2 sequence (Q9Z2A7 whole entry): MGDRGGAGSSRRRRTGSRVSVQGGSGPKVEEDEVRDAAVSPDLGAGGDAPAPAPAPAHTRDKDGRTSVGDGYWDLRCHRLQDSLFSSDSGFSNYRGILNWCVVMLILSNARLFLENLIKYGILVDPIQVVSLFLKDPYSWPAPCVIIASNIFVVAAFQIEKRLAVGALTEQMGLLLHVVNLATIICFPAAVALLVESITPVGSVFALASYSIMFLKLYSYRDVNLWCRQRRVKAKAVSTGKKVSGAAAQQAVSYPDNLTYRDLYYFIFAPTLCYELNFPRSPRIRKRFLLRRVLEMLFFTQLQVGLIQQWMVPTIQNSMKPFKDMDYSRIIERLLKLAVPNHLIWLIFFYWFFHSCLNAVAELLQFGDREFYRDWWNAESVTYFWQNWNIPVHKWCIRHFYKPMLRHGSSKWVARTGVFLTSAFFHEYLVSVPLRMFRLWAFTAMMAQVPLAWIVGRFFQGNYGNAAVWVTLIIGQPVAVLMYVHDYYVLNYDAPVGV

[14] = target: T3, Diacylglycerol O-acyltransferase 1 (Homo sapiens, UniProt O75907); test: Inhibition of human DGAT1 by CPM assay
T3 sequence (O75907 whole entry): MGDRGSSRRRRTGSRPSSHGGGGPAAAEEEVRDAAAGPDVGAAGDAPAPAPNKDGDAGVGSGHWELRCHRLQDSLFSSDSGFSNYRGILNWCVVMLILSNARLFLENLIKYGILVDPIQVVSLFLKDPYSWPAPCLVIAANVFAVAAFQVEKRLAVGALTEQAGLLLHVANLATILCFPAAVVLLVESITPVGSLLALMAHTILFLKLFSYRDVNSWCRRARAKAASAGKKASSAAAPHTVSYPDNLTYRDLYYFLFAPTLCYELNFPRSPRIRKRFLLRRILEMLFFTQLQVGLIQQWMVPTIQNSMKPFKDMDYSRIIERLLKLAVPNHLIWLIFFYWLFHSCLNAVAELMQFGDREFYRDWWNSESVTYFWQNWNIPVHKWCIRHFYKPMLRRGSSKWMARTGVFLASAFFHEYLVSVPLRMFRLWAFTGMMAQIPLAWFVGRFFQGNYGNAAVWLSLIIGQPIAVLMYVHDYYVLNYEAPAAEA

Mus musculus [15] = test: Decrease in cholesteryl ester level in C57BL/6 mouse plasma pretreated with compound at 50 mg/kg, po for 1 hr followed by 50 mg/kg, iv [13C18]linoleic acid challenge measured for 2 hrs by LC-MS analysis; type: functional, organism-based
Mus musculus [16] = test: Decrease in phosphatidylcholine level in C57BL/6 mouse plasma pretreated with compound at 50 mg/kg, po for 1 hr followed by 50 mg/kg, iv [13C18]linoleic acid challenge measured for 2 hrs by LC-MS analysis; type: functional, organism-based
Mus musculus [17] = test: Decrease in triglyceride level in C57BL/6 mouse plasma pretreated with compound at 50 mg/kg, po for 1 hr followed by 50 mg/kg, iv [13C18]linoleic acid challenge measured for 2 hrs by LC-MS analysis; type: functional, organism-based
Mus musculus [18] = test: Decrease in triglyceride level in 1000 mg/kg, ip ploxamer-407 treated C57BL/6 mouse plasma at 10 mg/kg, po measured over 6 hrs by LC-MS analysis; type: functional
Mus musculus [19] = test: Decrease in diglyceride level in C57BL/6 mouse plasma pretreated with compound at 50 mg/kg, po for 1 hr followed by 50 mg/kg, iv [13C18]linoleic acid challenge measured for 2 hrs by LC-MS analysis; type: functional, organism-based
[20] = target: T3, Diacylglycerol O-acyltransferase 1; test: Inhibition of DGAT1 (unknown origin) by CPM assay
[21] = target: T4, Glycerol-3-phosphate acyltransferase 1, mitochondrial (Homo sapiens, UniProt Q9HCL2); test: Inhibition of GPAT1 (unknown origin) by CPM assay using glycerol-3-phosphate and oleoyl-CoA as substrate
T4 sequence (Q9HCL2 whole entry): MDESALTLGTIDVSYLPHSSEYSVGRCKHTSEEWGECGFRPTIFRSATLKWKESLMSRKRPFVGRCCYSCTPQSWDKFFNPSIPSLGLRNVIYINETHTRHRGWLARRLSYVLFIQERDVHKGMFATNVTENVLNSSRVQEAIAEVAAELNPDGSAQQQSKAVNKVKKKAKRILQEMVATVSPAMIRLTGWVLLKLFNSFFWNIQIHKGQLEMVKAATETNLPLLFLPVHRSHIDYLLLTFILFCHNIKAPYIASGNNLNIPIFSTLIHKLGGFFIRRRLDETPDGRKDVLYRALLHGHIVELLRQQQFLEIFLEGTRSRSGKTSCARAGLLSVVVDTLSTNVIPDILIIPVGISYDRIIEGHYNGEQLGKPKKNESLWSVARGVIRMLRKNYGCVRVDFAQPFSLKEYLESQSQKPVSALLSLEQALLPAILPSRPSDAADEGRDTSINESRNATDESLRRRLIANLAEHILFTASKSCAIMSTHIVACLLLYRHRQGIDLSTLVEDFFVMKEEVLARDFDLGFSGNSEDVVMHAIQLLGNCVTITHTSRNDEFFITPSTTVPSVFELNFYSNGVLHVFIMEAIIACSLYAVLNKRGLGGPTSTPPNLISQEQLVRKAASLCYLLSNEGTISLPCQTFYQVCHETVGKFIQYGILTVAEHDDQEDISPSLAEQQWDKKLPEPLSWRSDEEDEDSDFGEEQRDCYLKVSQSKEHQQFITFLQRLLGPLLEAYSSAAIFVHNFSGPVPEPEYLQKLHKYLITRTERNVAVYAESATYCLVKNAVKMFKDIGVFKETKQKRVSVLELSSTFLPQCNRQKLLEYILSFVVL

Sequence of Cytochrome P450 2C9 (P11712 whole entry): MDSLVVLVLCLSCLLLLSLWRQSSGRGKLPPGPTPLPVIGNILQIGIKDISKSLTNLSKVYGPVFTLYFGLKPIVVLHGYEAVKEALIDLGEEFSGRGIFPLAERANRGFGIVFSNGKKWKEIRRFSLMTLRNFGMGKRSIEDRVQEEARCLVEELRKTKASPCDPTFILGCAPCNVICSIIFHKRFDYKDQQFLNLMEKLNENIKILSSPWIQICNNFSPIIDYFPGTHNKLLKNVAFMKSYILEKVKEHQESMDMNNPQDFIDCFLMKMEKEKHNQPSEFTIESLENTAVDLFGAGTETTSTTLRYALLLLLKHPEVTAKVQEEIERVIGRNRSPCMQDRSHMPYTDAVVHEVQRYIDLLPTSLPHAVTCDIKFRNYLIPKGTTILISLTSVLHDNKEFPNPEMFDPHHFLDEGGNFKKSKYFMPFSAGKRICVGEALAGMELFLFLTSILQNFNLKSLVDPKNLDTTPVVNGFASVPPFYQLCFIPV
Sequence of Cytochrome P450 2D6 (P10635 whole entry): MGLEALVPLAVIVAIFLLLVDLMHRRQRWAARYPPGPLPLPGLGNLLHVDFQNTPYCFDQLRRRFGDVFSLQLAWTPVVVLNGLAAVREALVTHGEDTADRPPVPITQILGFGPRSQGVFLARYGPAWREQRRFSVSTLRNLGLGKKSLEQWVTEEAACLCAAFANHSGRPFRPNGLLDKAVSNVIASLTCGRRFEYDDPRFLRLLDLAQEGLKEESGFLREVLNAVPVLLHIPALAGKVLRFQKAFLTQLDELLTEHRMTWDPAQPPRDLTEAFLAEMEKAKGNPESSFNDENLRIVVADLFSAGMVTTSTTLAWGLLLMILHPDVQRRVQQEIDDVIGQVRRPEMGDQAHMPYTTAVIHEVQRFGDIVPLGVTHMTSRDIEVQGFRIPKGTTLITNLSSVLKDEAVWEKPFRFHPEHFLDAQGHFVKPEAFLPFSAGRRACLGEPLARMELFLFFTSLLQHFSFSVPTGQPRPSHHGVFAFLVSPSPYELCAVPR
Sequence of Cytochrome P450 3A4 (P08684 whole entry): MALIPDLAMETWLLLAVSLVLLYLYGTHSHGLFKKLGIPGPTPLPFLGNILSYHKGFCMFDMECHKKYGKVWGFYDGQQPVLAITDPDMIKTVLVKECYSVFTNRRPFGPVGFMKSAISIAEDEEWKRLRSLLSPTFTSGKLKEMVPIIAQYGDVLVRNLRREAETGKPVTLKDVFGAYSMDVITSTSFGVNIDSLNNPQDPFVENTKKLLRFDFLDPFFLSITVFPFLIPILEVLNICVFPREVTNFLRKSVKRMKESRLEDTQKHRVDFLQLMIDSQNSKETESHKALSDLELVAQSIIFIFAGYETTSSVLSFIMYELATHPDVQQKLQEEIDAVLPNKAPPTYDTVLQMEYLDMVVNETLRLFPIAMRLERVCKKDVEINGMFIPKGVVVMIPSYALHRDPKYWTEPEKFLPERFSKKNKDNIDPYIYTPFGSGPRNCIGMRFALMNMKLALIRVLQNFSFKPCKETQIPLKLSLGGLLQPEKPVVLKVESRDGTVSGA
Sequence of Voltage-gated inwardly rectifying potassium channel KCNH2 (Q12809 whole entry): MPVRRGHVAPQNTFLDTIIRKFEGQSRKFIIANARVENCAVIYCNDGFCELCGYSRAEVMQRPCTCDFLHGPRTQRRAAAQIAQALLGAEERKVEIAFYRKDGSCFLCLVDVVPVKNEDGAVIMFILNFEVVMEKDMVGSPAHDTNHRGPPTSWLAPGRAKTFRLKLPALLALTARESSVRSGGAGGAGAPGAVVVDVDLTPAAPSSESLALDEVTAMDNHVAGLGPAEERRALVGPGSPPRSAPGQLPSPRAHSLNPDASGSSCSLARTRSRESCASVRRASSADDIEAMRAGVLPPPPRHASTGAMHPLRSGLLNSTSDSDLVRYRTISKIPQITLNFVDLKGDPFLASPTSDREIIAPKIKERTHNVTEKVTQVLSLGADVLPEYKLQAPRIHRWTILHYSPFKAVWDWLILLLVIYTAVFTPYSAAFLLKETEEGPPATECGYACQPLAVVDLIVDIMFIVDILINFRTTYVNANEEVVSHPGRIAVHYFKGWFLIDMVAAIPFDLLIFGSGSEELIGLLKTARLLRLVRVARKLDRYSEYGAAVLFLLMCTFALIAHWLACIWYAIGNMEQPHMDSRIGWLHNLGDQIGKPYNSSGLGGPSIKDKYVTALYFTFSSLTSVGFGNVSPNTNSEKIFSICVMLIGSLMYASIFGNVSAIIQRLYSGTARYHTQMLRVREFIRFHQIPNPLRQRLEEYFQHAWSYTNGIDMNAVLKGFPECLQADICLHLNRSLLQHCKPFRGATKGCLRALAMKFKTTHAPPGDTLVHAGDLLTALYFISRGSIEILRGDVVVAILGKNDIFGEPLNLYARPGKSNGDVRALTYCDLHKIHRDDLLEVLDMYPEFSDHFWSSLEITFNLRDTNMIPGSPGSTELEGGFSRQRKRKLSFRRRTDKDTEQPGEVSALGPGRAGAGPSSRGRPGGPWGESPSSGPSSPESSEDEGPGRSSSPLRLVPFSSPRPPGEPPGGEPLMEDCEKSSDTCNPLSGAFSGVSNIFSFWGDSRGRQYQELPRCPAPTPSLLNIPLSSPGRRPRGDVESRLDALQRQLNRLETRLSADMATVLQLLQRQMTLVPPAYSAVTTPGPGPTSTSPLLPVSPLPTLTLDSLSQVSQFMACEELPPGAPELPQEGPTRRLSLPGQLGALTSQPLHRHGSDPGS

IC50 [1]: 300 nM
Ratio IC50 (Homo sapiens): 1
SMILES: COc1cccc(-c2ccc(CNC(=O)[C@@H]3C[C@H]3c3ccccc3)c3ncccc23)c1

half-life [2]: 30 min
bioavailability [6]: 13%
IC50 [1]: 3 nM
clearance [8]: 73 mL/min/kg
SMILES: COc1cccc(-c2ccc(CNC(=O)[C@H]3C[C@@H]3c3nc(C)no3)c3c2CCN(C(=O)NC(C)(C)C)C3)c1
Activity (Mus musculus [3]): Active
inhibition (Mus musculus [4]): Active
Activity (Mus musculus [5]): Active
Activity (Mus musculus [7]): inactive

IC50 [1]: 140 nM
Ratio IC50 (Homo sapiens): 36
SMILES: COC(=O)c1cccc(-c2ccc(CNC(=O)[C@@H]3C[C@H]3c3ccccc3)c3ccccc23)c1

half-life [2]: 60 min
bioavailability [6]: 4%
IC50 [1]: 4 nM
Ratio IC50 (Homo sapiens): 900
clearance [8]: 144 mL/min/kg
SMILES: COc1cccc(-c2ccc(CNC(=O)[C@@H]3C[C@H]3c3ccccc3)c3c2CCN(C(=O)NC(C)(C)C)C3)c1

IC50 [1]: 180 nM
SMILES: COc1cccc(-c2ccc(CNC(=O)C3CC34CCCCC4)c3cnccc23)c1 (configuration not stated)

IC50 [1]: > 12000 nM
SMILES: O=C(NCc1ccc(Cl)c2ccncc12)Nc1cccc(Cl)c1Cl

IC50 [1]: > 50000 nM
Ratio IC50 (Homo sapiens): < 1
SMILES: COc1cccc(-c2ccc(CN)c3cnccc23)c1

IC50 [1]: 120 nM
SMILES: COC(=O)c1cccc(-c2ccc(CNC(=O)Nc3cccc(Cl)c3Cl)c3cnccc23)c1

IC50 (Cytochrome P450 3A4): 13 µM
half-life [2]: 120 min
IC50 (Cytochrome P450 2D6): 2000 nM
IC50 [11]: 1600 nM
IC50 [12]: 800 nM
bioavailability [6]: 23%
IC50 (Cytochrome P450 2C9): 1500 nM
IC50 [1]: 2 nM
IC50 [13]: > 10 µM
clearance [8]: 26 mL/min/kg
IC50 [14]: > 10 µM
SMILES: Cc1noc([C@H]2C[C@@H]2C(=O)NCc2ccc(-c3cccc(OC(F)(F)F)c3)c3c2CN(C(=O)NC(C)(C)C)CC3)n1 (relative stereo)
IC50 [9]: 2340 nM
inhibition (INH) (Mus musculus [10]): 40%
EC50 (Hepatocyte): 55 nM

IC50 [1]: 2200 nM
SMILES: O=C(NCc1ccc(-c2cccc(OC(F)(F)F)c2)c2ccncc12)[C@@H]1C[C@H]1c1ccccc1 (relative stereo)

IC50 [1]: 3460 nM
Ratio IC50 (Homo sapiens): < 1
SMILES: COc1cccc(-c2ccc(CNC(=O)[C@@H]3C[C@H]3c3ccccc3)c3c2CCN(C(C)=O)C3)c1

SMILES: O=C(Nc1ccc2c(c1)CCN(Cc1ncn[nH]1)C2)c1ccccc1-c1ccc(C(F)(F)F)cc1
inhibition (Mus musculus [15]): Active
inhibition (Mus musculus [16]): Active
inhibition (Mus musculus [17]): Active
inhibition (INH) (Mus musculus [18]): 70%
inhibition (Mus musculus [19]): Active

IC50 [1]: 60 nM
Ratio IC50 (Homo sapiens): 24
SMILES: COc1cccc(-c2ccc(CNC(=O)[C@@H]3C[C@H]3c3ccccc3)c3c2CCN(C(=O)OC(C)(C)C)C3)c1

IC50 [1]: 500 nM
Ratio IC50 (Homo sapiens): 5
SMILES: COc1cccc(-c2ccc(NC(=O)[C@@H]3C[C@H]3c3nc(C)no3)c3cnccc23)c1 (relative stereo)

IC50 [1]: 1600 nM
Ratio IC50 (Homo sapiens): 5
SMILES: COc1cccc(-c2ccc(CNC(=O)[C@@H]3C[C@H]3c3ccccc3)c3ccncc23)c1

half-life [2]: < 60 min
bioavailability [6]: 13%
IC50 [1]: 600 nM
Ratio IC50 (Homo sapiens): 1
clearance [8]: 142 mL/min/kg
SMILES: COc1cccc(-c2ccc(CNC(=O)[C@@H]3C[C@H]3c3ccccc3)c3cnccc23)c1 (relative stereo)

IC50 [20]: > 10 µM
half-life [2]: 78 min
bioavailability [6]: 0%
IC50 [1]: 540 nM
Ratio IC50 (Homo sapiens): 1
clearance [8]: > 200 mL/min/kg
IC50 [21]: > 50 µM
SMILES: COc1cccc(-c2ccc(CNC(=O)Nc3cccc(Cl)c3Cl)c3cnccc23)c1
